According to patent publication US4440779A, “Tricyclic derivatives of substituted pyrrole acids as analgesic and anti-inflammatory agents” (Merck & Co., Inc., priority 1982, dated 1984):

Legend:
gastric mucosa = assay: Gastric Hemorrhage Lesion Formation Assay (GHLF); format: in vivo, rat (Sprague-Dawley); conditions: fasted, 4 h
Protocol: In other words, they induce less gastric irritation than Zompirac. The GHLF test is conducted according to the following procedure:
Rats (Sprague-Dawley, Males, 120-180 gm) are fasted overnight and dosed orally with drug suspended in 0.5% methylcellulose. The drug concentration is adjusted so that each animal received 1.0 ml/100 gm body weight. Four hours later the animals are killed by asphixiation in carbon dioxide, the stomachs removed, cut open and everted. The mucosal lining is washed and examined under 3X magnification. The lesions are identified as perforations of the gastric mucosa, many of which perforate right through the wall of the stomach.
The results are expressed in two ways, the average number of lesions per stomach, and the number of animals in the group showing at least one lesion.

[1] = system: edema induced by carragenin in rat foot; assay: rat foot edema assay (carragenin-induced edema, C.F.E.); format: in vivo, rat (Sprague Dawley); conditions: 1 h before carragenin, read at 3 h; for inhibition in vivo at 3 mg/kg: 3 mg/kg oral; for inhibition in vivo at 10 mg/kg: 10 mg/kg oral; for inhibition in vivo at 20 mg/kg: 20 mg/kg oral; for inhibition in vivo at 30 mg/kg: 30 mg/kg oral
Protocol: The rat foot edema assay for determining anti-inflammatory activity is based on the ability of the compounds of Formula I to inhibit the edema induced by the injection of an inflammatory (phlogistic) agent into the tissues of the foot of a rat. Several groups of six male rats (Sprague Dawley strain, 150±30 g each) are given orally the compounds to be tested one hour before 0.1 ml of a 1% suspension of carragenin in 0.5% methocel is injected into the planar surface of each rat's right hind paws. Immediately and again three hours later, the foot volume is measured and recorded. The difference between the initial and final volumes is a measurement of the edema produced. Usually the compounds to be tested are suspended or dissolved in 0.5% methocel, and their activities measured against that produced by a known anti-inflammatory agent e.g., zomepirac (U.S. Pat. No. 3,952,012) according to standard procedure. The activity of a tested compound is also compared with that produced by a "control" rat which receives only the methocel solution. A test of 3 mg/kg, 10 mg/kg plus one dose of 30 mg/kg are usually given.

SMILES	Animals with lesions (gastric mucosa; 90 mg/kg oral)	Ave. lesions per animal (gastric mucosa; 90 mg/kg oral)	inhibition in vivo at 3 mg/kg [1] [%]	inhibition in vivo at 10 mg/kg [1] [%]	inhibition in vivo at 20 mg/kg [1] [%]	inhibition in vivo at 30 mg/kg [1] [%]	other results
Cc1ccc2c(c1)OCc1cc(CC(=O)O)n(C)c1C2=O [7-CH3 / OCH2 / H, 1,7-dimethyl-4,10-dihydro-10-oxo-1H[1]benzoxepino[4,3-b]-pyrrole-2-acetic acid]	2/6	0.33	32.1	39.9	42.6	–	Animals with lesions (gastric mucosa; 30 mg/kg oral): 0/6; Ave. lesions per animal (gastric mucosa; 30 mg/kg oral): 0; Animals with lesions (gastric mucosa; 60 mg/kg oral): 1/6; Ave. lesions per animal (gastric mucosa; 60 mg/kg oral): 0.16; Animals with lesions (gastric mucosa; 120 mg/kg oral): 4/6; Ave. lesions per animal (gastric mucosa; 120 mg/kg oral): 3.3
CC(C(=O)O)c1cc2c(n1C)C(=O)c1ccc(Cl)cc1CC2 (stereo not drawn) [7-Cl / CH2CH2 / CH3, 1,4,5,10-Tetrahydro-7-chloro-1,α-dimethyl-10-oxobenzocyclohepta[1,2-b]pyrrole-2-acetic acid]	–	–	–	–	36.8	59	–
Cn1c(CC(=O)O)cc2c1C(=O)c1ccc(Cl)cc1CC2 [7-Cl / CH2CH2 / H]	–	–	29.9	41.5	–	57.5	Animals with lesions (gastric mucosa; 100 mg/kg oral): 1/5; Ave. lesions per animal (gastric mucosa; 100 mg/kg oral): 0.2; Animals with lesions (gastric mucosa; 300 mg/kg oral): 0/5; Ave. lesions per animal (gastric mucosa; 300 mg/kg oral): 0; Animals with lesions (gastric mucosa; 600 mg/kg oral): 4/5; Ave. lesions per animal (gastric mucosa; 600 mg/kg oral): 1.8
Cn1c(CC(=O)O)cc2c1C(=O)c1ccc(Cl)cc1CO2 [7-Cl / CH2O / H]	–	–	–	–	50	–	–
CC(C(=O)O)c1cc2c(n1C)C(=O)c1ccc(Cl)cc1OC2 (stereo not shown) [7-Cl / OCH2 / CH3]	–	–	–	–	–	60	–
Cn1c(CC(=O)O)cc2c1C(=O)c1ccc(Cl)cc1OC2 [7-Cl / OCH2 / H, 7-chloro-4,10-dihydro-1-methyl-10-oxo-1H-[1]benzoxepino[4,3-b]pyrrole-2-acetic acid]	5/6	5.0	46	64	–	54	Animals with lesions (gastric mucosa; 60 mg/kg oral): 0/6; Ave. lesions per animal (gastric mucosa; 60 mg/kg oral): 0
Cn1c(CC(=O)O)cc2c1C(=O)c1ccc(Cl)cc1SC2 [7-Cl / SCH2 / H, 7-Chloro-4,10-dihydro-1-methyl-10-oxo-1H-[1]benzothiepino[4,3-b]pyrrole-2-acetic acid]	–	–	–	–	–	51	–
Cn1c(CC(=O)O)cc2c1C(=O)c1ccc(F)cc1OC2 [7-F / OCH2 / H]	–	–	–	31	–	40	–
COc1ccc2c(c1)OCc1cc(CC(=O)O)n(C)c1C2=O [7-OCH3 / OCH2 / H, 7-methoxy-4,10-dihydro-1-methyl-10-oxo-1H[1]-benzoxepino[4,3-b]pyrrole-2-acetic acid]	2/6	1.0	44	–	–	61	Animals with lesions (gastric mucosa; 120 mg/kg oral): 4/6; Ave. lesions per animal (gastric mucosa; 120 mg/kg oral): 4.0
